From patent publication US9968649B2, “Vasopressin formulations for use in treatment of hypotension” (Par Pharmaceutical, Inc., priority 2015, dated 2018)
“And” between values parts separate entries of the source, which are not always exact repeats. Identical values can stand only once. Like-named read-outs stand apart in the source and are kept apart here.

Legend:
[1] = test system: septic shock and post-cardiotomy vasodilatory shock; settings: seven studies in septic shock and eight studies in post-cardiotomy vasodilatory shock; cited from earlier work
[2] = type: physicochemical
[3] = Particulate matter (USP) of stored samples (Example 8); type: physicochemical; settings: inverted
Procedure: (§1) Experiments were also conducted on the same samples above over the course of the experiments to measure the amount of individual impurities in the samples, pH of the samples, chlorobutanol content, particulate matter, antimicrobial effectiveness, and bacterial endotoxin levels (TABLES 25-42). (NR=no reading; ND=not determined; UI=unidentified impurity).

[4] = test system: patients with vasodilatory shock; settings: cited from earlier work
[5] = Effect of pH 3.5-4.5 on vasopressin formulations, four weeks at 25° C. or 40° C. (Example 9); type: physicochemical
Procedure: To test of effect of pH on vasopressin formulations, solutions containing 20 units/mL vasopressin, adjusted to pH 3.5, 3.6, 3.7, 3.8, 3.9, 4, 4.1, 4.2, 4.3, 4.4, or 4.5 with 10 mM acetate buffer, were prepared. One mL of each of the vasopressin formulations was then filled into 10 cc vials.
The vasopressin formulations were stored for four weeks at: (i) 25° C.; or (ii) 40° C., and the assay (% label claim; vasopressin remaining) and % total impurities after four weeks were measured using the methods described in EXAMPLE 1. FIGS. 11 and 12 below display the results of the experiments at 25° C. The results of the experiments at 40° C. are included in FIGS. 13 and 14.

[6] = pH of stored samples (Example 8); type: physicochemical; settings: inverted
Procedure: as §1

[7] = cited from earlier work
[8] = test system: Chinese hamster ovary (CHO) cell; test: In vitro Chinese hamster ovary (CHO) cell chromosome aberration test; type: cell-based
[9] = Chlorobutanol content of stored samples (Example 8); type: physicochemical; settings: inverted
Procedure: as §1

[10] = cited from earlier work; remark: listed apart in the source
[11] = test system: bacterial; test: In vitro bacterial mutagenicity (Ames) test
[12] = test system: spermatozoa; settings: mice; cited from earlier work
[13] = Investigation of pH: vasopressin stability by HPLC after 60° C. for one week (Example 2); type: physicochemical; settings: 10 mM citrate buffer in isotonic saline
Procedure: To determine a possible pH for a vasopressin formulation with good shelf life, vasopressin formulations were prepared in 10 mM citrate buffer diluted in isotonic saline across a range of pH. Stability was assessed via HPLC as in EXAMPLE 1 after incubation of the formulations at 60° C. for one week. FIG. 9 illustrates the results of the experiment. […] At pH 3.5, the percent label claim (% LC) of vasopressin was highest, and the proportion of total impurities was lowest.

## NC(=O)CC[C@@H]1NC(=O)[C@H](Cc2ccccc2)NC(=O)[C@H](Cc2ccc(O)cc2)NC(=O)[C@@H](N)CSSC[C@@H](C(=O)N2CCC[C@H]2C(=O)N[C@@H](CCCN=C(N)N)C(=O)NCC(N)=O)NC(=O)[C@H](CC(N)=O)NC1=O [Vasopressin, Cyclo (1-6) L-Cysteinyl-L-Tyrosyl-L-Phenylalanyl-L-Glutaminyl-L-Asparaginyl-L-Cysteinyl-L-Prolyl-L-Arginyl-L-Glycinamide]
[1]
  systolic and mean blood pressure following administration: Increases in systolic and mean blood pressure
[2]; pH 3.6
  pH with lowest level of impurities within pH 3.6 to 3.8: 3.8
[2]; pH 3.7
  pH with lowest level of impurities within pH 3.7 to 3.8: 3.8
[3]; 5° C., 1 month
  Particulate Matter (USP) (≥10 μm): 1 and 2
  Particulate Matter (USP) (≥25 μm): 0
[3]; 5° C., 2 months
  Particulate Matter (USP) (≥10 μm): 1
  Particulate Matter (USP) (≥25 μm): 0
[3]; 5° C., 3 months
  Particulate Matter (USP) (≥10 μm): 1 and 2
  Particulate Matter (USP) (≥25 μm): 0
[3]; 5° C., 6 months
  Particulate Matter (USP) (≥10 μm): 2 and 1
  Particulate Matter (USP) (≥25 μm): 0
[3]; 5° C., 9 months
  Particulate Matter (USP) (≥25 μm): 0
[3]; 5° C., 12 months
  Particulate Matter (USP) (≥10 μm): 2
  Particulate Matter (USP) (≥25 μm): 0
[3]; 5° C., 18 months
  Particulate Matter (USP) (≥25 μm): 0
[3]; 5° C., 24 months
  Particulate Matter (USP) (≥25 μm): 0
[3]; 5° C., Initial
  Particulate Matter (USP) (≥25 μm): 0
[3]; 40° C., 1 month
  Particulate Matter (USP) (≥10 μm): 1
  Particulate Matter (USP) (≥25 μm): 0
[3]; 40° C., 2 months
  Particulate Matter (USP) (≥10 μm): 1
  Particulate Matter (USP) (≥25 μm): 0
[3]; 40° C., 3 months
  Particulate Matter (USP) (≥10 μm): 1
  Particulate Matter (USP) (≥25 μm): 0
[3]; 40° C., Initial
  Particulate Matter (USP) (≥10 μm): 1
  Particulate Matter (USP) (≥25 μm): 0
[4]; after stopping the infusion
  time for pressor effect to fade: ≤ 20 min
[4]; infusion of exogenous vasopressin
  time of peak pressor effect: ≤ 15 min
[4]; patients with vasodilatory shock
  hemodynamic effect at therapeutic doses: increases systemic vascular resistance and mean arterial blood pressure
[4]; patients
  tachyphylaxis or tolerance to the pressor effect: no evidence for tachyphylaxis or tolerance
[5]; 25° C.
  pH providing the highest stability: 3.7
  pH with lowest level of impurities within pH 3.6 to 3.8: 3.8
[5]; 40° C.
  pH providing the highest stability: 3.6
  pH with lowest level of impurities within pH 3.6 to 3.8: 3.8
[6]; 5° C., 1 month
  pH: 3.5 and 3.6
[6]; 5° C., 2 months
  pH: 3.5 and 3.6
[6]; 5° C., 3 months
  pH: 3.5 and 3.6
[6]; 5° C., 6 months
  pH: 3.5 and 3.6
[6]; 5° C., 9 months
  pH: 3.5 and 3.6
[6]; 5° C., 12 months
  pH: 3.5 and 3.6
[6]; 5° C., 18 months
  pH: 3.8 and 3.6 and 3.5
[6]; 5° C., 24 months
  pH: 3.5 and 3.6
[6]; 5° C., Initial
  pH: 3.5 and 3.6
[6]; 40° C., 1 month
  pH: 3.3
[6]; 40° C., 2 months
  pH: 3.2
[6]; 40° C., 3 months
  pH: 3.1
[6]; 40° C., Initial
  pH: 3.5
[7]; at term
  increase of clearance of vasopressin in pregnancy: up to 5 fold
[7]; first trimester
  clearance of vasopressin in pregnancy: only slightly increased
[7]; third trimester
  increase of clearance of vasopressin in pregnancy: about 4 fold
[8]
  CHO cell chromosome aberration test result: negative
[9]; 5° C., 1 month
  Chlorobutanol: 0.49% w/v and 0.48% w/v
[9]; 5° C., 2 months
  Chlorobutanol: 0.48% w/v and 0.47% w/v
[9]; 5° C., 3 months
  Chlorobutanol: 0.48% w/v and 0.47% w/v
[9]; 5° C., 6 months
  Chlorobutanol: 0.47% w/v and 0.48% w/v
[9]; 5° C., 9 months
  Chlorobutanol: 0.48% w/v and 0.47% w/v
[9]; 5° C., 12 months
  Chlorobutanol: 0.48% w/v and 0.49% w/v
[9]; 5° C., 18 months
  Chlorobutanol: 0.49% w/v and 0.48% w/v
[9]; 5° C., 24 months
  Chlorobutanol: 0.49% w/v and 0.48% w/v
[9]; 5° C., Initial
  Chlorobutanol: 0.48% w/v and 0.47% w/v
[9]; 40° C., 1 month
  Chlorobutanol: 0.48% w/v
[9]; 40° C., 2 months
  Chlorobutanol: 0.50% w/v
[9]; 40° C., 3 months
  Chlorobutanol: 0.47% w/v
[9]; 40° C., Initial
  Chlorobutanol: 0.49% w/v
[10]; human, in vivo
  dose excreted unchanged in urine: about 6%
[10]; infusion rates 0.01-0.1 units/minute
  apparent half-life: ≤ 10 min
[11]
  bacterial mutagenicity (Ames) test result: negative
[12]
  effect on spermatozoa: can have an effect on function and fertilizing ability of spermatozoa
[13]
  pH at which the greatest level of stability was observed (highest % LC, lowest total impurities): 3.5
